Source: the NIST ThermoML archive (doi:10.1016/j.jct.2011.07.018)
Numbers after ± are expanded uncertainties.

Experiments:
[1] = 298.15 K; 101.33 kPa; Liquid; Vibrating tube method
[2] = excess molar enthalpy (molar enthalpy of mixing); xn = mol fraction of the nth substance listed; conditions: 298.15 K, 101 kPa, Liquid, isothermal titration calorimeter

CCCCCCC(C)=O [2-octanone]
Conditions | mass density [kg/m3]
[1] | 814.32 ± 0.64

CCCCCCC(C)=O [2-octanone] + CCCCCCCCO
[2]
Conditions | excess molar enthalpy [kcal/mol]
x2 = 0.015 | 0.0217 ± 0.000478
x2 = 0.03 | 0.0425 ± 0.000717
x2 = 0.045 | 0.0619 ± 0.000956
x2 = 0.059 | 0.0793 ± 0.0012
x2 = 0.072 | 0.0961 ± 0.0012
x2 = 0.085 | 0.111 ± 0.00143
x2 = 0.098 | 0.126 ± 0.00167
x2 = 0.111 | 0.139 ± 0.00191
x2 = 0.124 | 0.152 ± 0.00191
x2 = 0.137 | 0.165 ± 0.00215
x2 = 0.15 | 0.177 ± 0.00239
x2 = 0.162 | 0.188 ± 0.00239
x2 = 0.174 | 0.197 ± 0.00263
x2 = 0.186 | 0.207 ± 0.00263
x2 = 0.197 | 0.215 ± 0.00263
x2 = 0.206 | 0.228 ± 0.00287
x2 = 0.212 | 0.233 ± 0.00287
x2 = 0.218 | 0.237 ± 0.00311
x2 = 0.225 | 0.241 ± 0.00311
x2 = 0.232 | 0.246 ± 0.00311
x2 = 0.24 | 0.251 ± 0.00311
x2 = 0.248 | 0.256 ± 0.00335
x2 = 0.256 | 0.261 ± 0.00335
x2 = 0.266 | 0.266 ± 0.00335
x2 = 0.276 | 0.272 ± 0.00335
x2 = 0.283 | 0.275 ± 0.00359
x2 = 0.291 | 0.279 ± 0.00359
x2 = 0.299 | 0.283 ± 0.00359
x2 = 0.308 | 0.286 ± 0.00359
x2 = 0.317 | 0.29 ± 0.00359
x2 = 0.327 | 0.294 ± 0.00359
x2 = 0.337 | 0.298 ± 0.00382
x2 = 0.348 | 0.301 ± 0.00382
x2 = 0.36 | 0.305 ± 0.00382
x2 = 0.373 | 0.308 ± 0.00382
x2 = 0.383 | 0.31 ± 0.00382
x2 = 0.393 | 0.313 ± 0.00382
x2 = 0.404 | 0.315 ± 0.00406
x2 = 0.415 | 0.316 ± 0.00406
x2 = 0.428 | 0.318 ± 0.00406
x2 = 0.44 | 0.32 ± 0.00406
x2 = 0.454 | 0.321 ± 0.00406
x2 = 0.469 | 0.322 ± 0.00406
x2 = 0.484 | 0.322 ± 0.00406
x2 = 0.496 | 0.321 ± 0.00406
x2 = 0.509 | 0.321 ± 0.00406
x2 = 0.523 | 0.32 ± 0.00406
x2 = 0.537 | 0.318 ± 0.00406
x2 = 0.552 | 0.316 ± 0.00406
x2 = 0.567 | 0.313 ± 0.00382
x2 = 0.587 | 0.31 ± 0.00382
x2 = 0.602 | 0.305 ± 0.00382
x2 = 0.62 | 0.3 ± 0.00382
x2 = 0.64 | 0.293 ± 0.00359
x2 = 0.657 | 0.288 ± 0.00359
x2 = 0.674 | 0.281 ± 0.00359
x2 = 0.692 | 0.273 ± 0.00335
x2 = 0.711 | 0.263 ± 0.00335
x2 = 0.731 | 0.252 ± 0.00311
x2 = 0.752 | 0.24 ± 0.00311
x2 = 0.775 | 0.226 ± 0.00287
x2 = 0.799 | 0.209 ± 0.00263
x2 = 0.82 | 0.194 ± 0.00239
x2 = 0.841 | 0.176 ± 0.00215
x2 = 0.864 | 0.156 ± 0.00191
x2 = 0.888 | 0.133 ± 0.00167
x2 = 0.914 | 0.107 ± 0.00143
x2 = 0.941 | 0.0762 ± 0.0012
x2 = 0.97 | 0.0411 ± 0.000717

CCCCCCC(C)=O [2-octanone] + CCCCCCO
[2]
Conditions | excess molar enthalpy [kcal/mol]
x2 = 0.021 | 0.0275 ± 0.000478
x2 = 0.041 | 0.0519 ± 0.000717
x2 = 0.06 | 0.0741 ± 0.000956
x2 = 0.079 | 0.0939 ± 0.0012
x2 = 0.097 | 0.112 ± 0.00143
x2 = 0.114 | 0.129 ± 0.00167
x2 = 0.13 | 0.143 ± 0.00191
x2 = 0.146 | 0.157 ± 0.00191
x2 = 0.164 | 0.171 ± 0.00215
x2 = 0.181 | 0.183 ± 0.00239
x2 = 0.197 | 0.195 ± 0.00239
x2 = 0.213 | 0.205 ± 0.00263
x2 = 0.228 | 0.214 ± 0.00263
x2 = 0.242 | 0.223 ± 0.00287
x2 = 0.259 | 0.232 ± 0.00287
x2 = 0.275 | 0.239 ± 0.00311
x2 = 0.29 | 0.246 ± 0.00311
x2 = 0.304 | 0.252 ± 0.00311
x2 = 0.314 | 0.258 ± 0.00335
x2 = 0.322 | 0.261 ± 0.00335
x2 = 0.331 | 0.264 ± 0.00335
x2 = 0.339 | 0.267 ± 0.00335
x2 = 0.349 | 0.27 ± 0.00335
x2 = 0.359 | 0.273 ± 0.00335
x2 = 0.367 | 0.275 ± 0.00359
x2 = 0.376 | 0.278 ± 0.00359
x2 = 0.385 | 0.28 ± 0.00359
x2 = 0.394 | 0.282 ± 0.00359
x2 = 0.405 | 0.284 ± 0.00359
x2 = 0.415 | 0.286 ± 0.00359
x2 = 0.426 | 0.287 ± 0.00359
x2 = 0.438 | 0.289 ± 0.00359
x2 = 0.448 | 0.29 ± 0.00359
x2 = 0.458 | 0.291 ± 0.00359
x2 = 0.469 | 0.291 ± 0.00359
x2 = 0.48 | 0.291 ± 0.00359
x2 = 0.492 | 0.292 ± 0.00359
x2 = 0.504 | 0.292 ± 0.00359
x2 = 0.517 | 0.291 ± 0.00359
x2 = 0.531 | 0.29 ± 0.00359
x2 = 0.542 | 0.289 ± 0.00359
x2 = 0.554 | 0.288 ± 0.00359
x2 = 0.566 | 0.286 ± 0.00359
x2 = 0.58 | 0.284 ± 0.00359
x2 = 0.593 | 0.282 ± 0.00359
x2 = 0.608 | 0.279 ± 0.00359
x2 = 0.623 | 0.275 ± 0.00359
x2 = 0.638 | 0.271 ± 0.00335
x2 = 0.652 | 0.266 ± 0.00335
x2 = 0.667 | 0.261 ± 0.00335
x2 = 0.682 | 0.255 ± 0.00335
x2 = 0.698 | 0.249 ± 0.00311
x2 = 0.714 | 0.241 ± 0.00311
x2 = 0.731 | 0.233 ± 0.00287
x2 = 0.746 | 0.225 ± 0.00287
x2 = 0.762 | 0.217 ± 0.00287
x2 = 0.778 | 0.207 ± 0.00263
x2 = 0.795 | 0.196 ± 0.00263
x2 = 0.812 | 0.185 ± 0.00239
x2 = 0.83 | 0.171 ± 0.00215
x2 = 0.85 | 0.157 ± 0.00191
x2 = 0.866 | 0.143 ± 0.00191
x2 = 0.879 | 0.129 ± 0.00167
x2 = 0.897 | 0.112 ± 0.00143
x2 = 0.916 | 0.0944 ± 0.0012
x2 = 0.936 | 0.0746 ± 0.000956
x2 = 0.956 | 0.0526 ± 0.000717
x2 = 0.978 | 0.0277 ± 0.000478

C[S+](C)[O-] [dimethyl sulfoxide]
Conditions | mass density [kg/m3]
[1] | 1095.32 ± 0.31

CN(C)C=O [dimethylformamide]
Conditions | mass density [kg/m3]
[1] | 944.34 ± 0.24

CCCCCCO [hexan-1-ol]
Conditions | mass density [kg/m3]
[1] | 815.21 ± 0.64

CCCCCC(=O)O [hexanoic acid]
Conditions | mass density [kg/m3]
[1] | 922.06 ± 0.75

CCCCCC(=O)O [hexanoic acid] + CCCCCCO
[2]
Conditions | excess molar enthalpy [kcal/mol]
x2 = 0.025 | 0.0232 ± 0.000478
x2 = 0.048 | 0.0423 ± 0.000717
x2 = 0.07 | 0.0586 ± 0.000956
x2 = 0.091 | 0.0722 ± 0.000956
x2 = 0.112 | 0.0841 ± 0.0012
x2 = 0.131 | 0.0942 ± 0.0012
x2 = 0.154 | 0.106 ± 0.00143
x2 = 0.176 | 0.115 ± 0.00143
x2 = 0.198 | 0.123 ± 0.00167
x2 = 0.218 | 0.129 ± 0.00167
x2 = 0.238 | 0.134 ± 0.00167
x2 = 0.256 | 0.139 ± 0.00191
x2 = 0.268 | 0.143 ± 0.00191
x2 = 0.277 | 0.145 ± 0.00191
x2 = 0.287 | 0.147 ± 0.00191
x2 = 0.298 | 0.149 ± 0.00191
x2 = 0.309 | 0.15 ± 0.00191
x2 = 0.321 | 0.152 ± 0.00191
x2 = 0.335 | 0.153 ± 0.00191
x2 = 0.349 | 0.155 ± 0.00191
x2 = 0.365 | 0.156 ± 0.00191
x2 = 0.377 | 0.156 ± 0.00191
x2 = 0.39 | 0.156 ± 0.00191
x2 = 0.404 | 0.156 ± 0.00191
x2 = 0.419 | 0.156 ± 0.00191
x2 = 0.435 | 0.156 ± 0.00191
x2 = 0.452 | 0.155 ± 0.00191
x2 = 0.47 | 0.153 ± 0.00191
x2 = 0.491 | 0.151 ± 0.00191
x2 = 0.506 | 0.149 ± 0.00191
x2 = 0.523 | 0.147 ± 0.00191
x2 = 0.54 | 0.144 ± 0.00191
x2 = 0.559 | 0.141 ± 0.00191
x2 = 0.579 | 0.137 ± 0.00167
x2 = 0.601 | 0.132 ± 0.00167
x2 = 0.624 | 0.127 ± 0.00167
x2 = 0.649 | 0.121 ± 0.00167
x2 = 0.669 | 0.115 ± 0.00143
x2 = 0.691 | 0.109 ± 0.00143
x2 = 0.714 | 0.103 ± 0.00143
x2 = 0.738 | 0.0956 ± 0.0012
x2 = 0.765 | 0.0872 ± 0.0012
x2 = 0.793 | 0.0784 ± 0.0012
x2 = 0.817 | 0.07 ± 0.000956
x2 = 0.843 | 0.0609 ± 0.000956
x2 = 0.87 | 0.0511 ± 0.000717
x2 = 0.899 | 0.0404 ± 0.000717
x2 = 0.931 | 0.0272 ± 0.000478
x2 = 0.964 | 0.0141 ± 0.000239
